Measured values: patent publication US20140364453A1, “SALUBRINAL-DRIVEN ATTENUATION OF MALIGNANT PHENOTYPES OF 4T1 BREAST CANCER CELLS” (Indiana University Research and Technology Corporation, priority 2013, published 2014)

How the values were obtained:
Rac1 GTPase [1] = assay: FRET-based Rac1 activity imaging, MDA-MB-231 cells; type: cell-based, human; conditions: 20 μM salubrinal
Procedure: (§1) To visualize Rac1 activity in response to salubrinal, FRET imaging was conducted using a cyan fluorescent protein (CFP)-yellow fluorescent protein (YFP) Rac1 biosensor. The filter sets (Semrock) were chosen for CFP excitation at 438±24 nm (center wavelength±bandwidth), CFP emission at 483±32 nm, and YFP emission at 542±27 nm. Time-lapse images were acquired at an interval of 5 min using a fluorescence microscope (Nikon, Tokyo, Japan). The level of Rac1 activity was determined by computing an emission ratio of YFP/CFP for individual cells using NIS-Elements software (Nikon).

[2] = system: MDA-MB-231 human breast cancer cells; assay: Scratch motility assay, MDA-MB-231 cells; type: cell-based; conditions: 20 or 50 μM salubrinal, 24 h, 10% serum
Procedure: (§2) 4T1 mouse mammary tumor cells and MDA-MB-231 human breast cancer cells were cultured in DMEM containing 10% fetal bovine serum and antibiotics (50 units/ml penicillin, and 50 μg/ml streptomycin; Life Technologies, Grand Island, N.Y., USA). Cells were maintained at 37° C. and 5% CO2 in a humidified incubator. Responses to administration of 10-50 μM salubrinal or 5-50 μM guanabenz acetate (Tocris Bioscience, Ellisville, Mo., USA) were evaluated using assays for MTT, adhesion, invasion, and motility. To evaluate 2-dimensional motility, a wound healing scratch motility assay was carried out. In brief, cells were plated in 12-well plates or 6-cm dishes (Falcon) and on the next day, scratching was performed using a plastic tip. The areas newly occupied with cells in the scratched zone were determined every 3 h up to 24 h using images obtained by a microscope, which were scanned with Adobe Photoshop (CS2, Adobe Systems, San Jose, Calif., USA) and quantified with Image J.

[3] = system: MDA-MB-231 human breast cancer cells; assay: MTT assay, MDA-MB-231 cells; type: cell-based; conditions: 20 or 50 μM salubrinal
Procedure: (§3) 4T1 mouse mammary tumor cells and MDA-MB-231 human breast cancer cells were cultured in DMEM containing 10% fetal bovine serum and antibiotics (50 units/ml penicillin, and 50 μg/ml streptomycin; Life Technologies, Grand Island, N.Y., USA). Cells were maintained at 37° C. and 5% CO2 in a humidified incubator. Responses to administration of 10-50 μM salubrinal or 5-50 μM guanabenz acetate (Tocris Bioscience, Ellisville, Mo., USA) were evaluated using assays for MTT, adhesion, invasion, and motility. Cells (5×10^2/well) were seeded in 96-well plates, and the reduction of MTT to formazan was evaluated by measuring the absorbance at 570 nm with a plate reader (EL800, BioTek, Winooski, Vt., USA).

cleaved caspase 3 [4] = assay: Western blot of cleaved caspase 3, MDA-MB-231 cells; type: cell-based, human; conditions: 20 or 50 μM salubrinal, absence of serum
Procedure: (§4) 4T1 mouse mammary tumor cells and MDA-MB-231 human breast cancer cells were cultured in DMEM containing 10% fetal bovine serum and antibiotics (50 units/ml penicillin, and 50 μg/ml streptomycin; Life Technologies, Grand Island, N.Y., USA). Cells were maintained at 37° C. and 5% CO2 in a humidified incubator. Responses to administration of 10-50 μM salubrinal or 5-50 μM guanabenz acetate (Tocris Bioscience, Ellisville, Mo., USA) were evaluated using assays for MTT, adhesion, invasion, and motility. Cells were lysed in a radioimmunoprecipitation assay (RIPA) buffer containing protease inhibitors (Santa Cruz Biotechnology, Santa Cruz, Calif., USA) and phosphatase inhibitors (Calbiochem, Billerica, Mass., USA). Isolated proteins were fractionated using 10-15% SDS gels and electro-transferred to Immobilon-P membranes (Millipore, Billerica, Mass., USA). The membrane was incubated for 1 h with primary antibodies followed by 45 min incubation with goat anti-rabbit or anti-mouse IgG conjugated with horseradish peroxidase (Cell Signaling, Danvers, Mass., USA). […] Protein levels were assayed using a SuperSignal west femto maximum sensitivity substrate (Thermo Scientific, Waltham, Mass., USA), and signal intensities were quantified with a luminescent image analyzer (LAS-3000, Fuji Film, Tokyo, Japan).

[5] = system: primary mouse bone marrow cells; assay: Osteoclastogenesis in primary mouse bone marrow cells; type: cell-based; conditions: 10 or 20 μM; 3 days
cleaved caspase 3 [6] = assay: Western blot of cleaved caspase 3, 4T1 cells; type: cell-based, mouse; conditions: absence and presence of 10% serum, 10-50 μM salubrinal, 5-50 μM guanabenz
Procedure: as §4

[7] = system: NFATc1, TRAP, OSCAR, c-fos, MMP9, and cathepsin K; assay: Relative mRNA abundance in primary mouse bone marrow cells; type: cell-based; conditions: 10 μM; 24 h
4T1 cells [8] = assay: Cell adhesion assay, 4T1 cells; type: cell-based, mouse; conditions: surfaces coated with poly-L-lysine, type I collagen, fibronectin, laminin; 30 min and 3 h
Procedure: 4T1 mouse mammary tumor cells and MDA-MB-231 human breast cancer cells were cultured in DMEM containing 10% fetal bovine serum and antibiotics (50 units/ml penicillin, and 50 μg/ml streptomycin; Life Technologies, Grand Island, N.Y., USA). Cells were maintained at 37° C. and 5% CO2 in a humidified incubator. Responses to administration of 10-50 μM salubrinal or 5-50 μM guanabenz acetate (Tocris Bioscience, Ellisville, Mo., USA) were evaluated using assays for MTT, adhesion, invasion, and motility. Ninety-six well plates were coated with poly-L-lysine, fibronectin, laminin (Sigma-Aldrich, St. Louis, Mo., USA), or type I collagen (BD Biosciences, Bedford, Mass., USA) for 2 h. The plates were then incubated with non-fat dry milk, followed by washing with PBS and serum-free culture medium. Cells (1×10^4/well) were added on the plate, and after 30 min and 3 h the attached cells were stained with 0.04% crystal violet (Sigma-Aldrich) for 10 min at room temperature. The wells were washed with PBS, and DMSO was added. Absorbance at 550 nm was measured using the plate reader.

[9] = system: 4T1 mouse mammary tumor cells; assay: In vivo tumor growth, BALB/c mice injected with 4T1 cells; conditions: 4T1 cells s.c., 25 μg salubrinal s.c. daily, day 20, mean±S.D., N=18
Procedure: Experimental procedures were approved by the Indiana University Animal Care and Use Committee and were in compliance with the Guiding Principles in the Care and Use of Animals endorsed by the American Physiological Society. Five mice were housed per cage, and fed with mouse chow and water ad libitum. Thirty-five BALB/c female mice (6 weeks, Harlan Laboratories) were used. Mice received subcutaneous injection of 4T1 mouse mammary tumor cells (10^6 cells in 100 μl PBS) to the abdomen on day 1. Twenty-five μg of salubrinal was administered subcutaneously into the area of cell injection every day, while the control animals received a vehicle. The animals were sacrificed on day 20, and the volume and weight of tumors were determined. The tumor volume was calculated as (long diameter)×(short diameter)^2/2.

[10] = system: MDA-MB-231 human breast cancer cells; assay: In vitro invasion assay, MDA-MB-231 cells; type: cell-based; conditions: 20 or 50 μM salubrinal, 24 h, absence of serum
Procedure: (§5) 4T1 mouse mammary tumor cells and MDA-MB-231 human breast cancer cells were cultured in DMEM containing 10% fetal bovine serum and antibiotics (50 units/ml penicillin, and 50 μg/ml streptomycin; Life Technologies, Grand Island, N.Y., USA). Cells were maintained at 37° C. and 5% CO2 in a humidified incubator. Responses to administration of 10-50 μM salubrinal or 5-50 μM guanabenz acetate (Tocris Bioscience, Ellisville, Mo., USA) were evaluated using assays for MTT, adhesion, invasion, and motility. An invasion assay was performed with a Boyden chamber with minor modifications of the usual procedure. In brief, Matrigel (BD Biosciences) was diluted with ice-cold PBS (100 μg/ml). Six-hundred μl of Matrigel was added to each filter (polyethylene terephthalate membrane, 8-μm pore size, 23.1 mm in diameter, Falcon) and left to polymerize overnight. Prior to assembling the chamber unit, the lower chamber (6-well plate, Falcon) was filled with culture medium consisting of salubrinal or guanabenz. Cells (1˜4×10^5/well) were added to the culture medium with salubrinal or guanabenz in the upper chamber and incubated for 24 h. The cells on the filter surface were stained with Giemsa (Sigma-Aldrich) and the number of cells was counted under the microscope.

4T1 cells [11] = assay: Two-dimensional wound healing scratch motility assay, 4T1 cells; type: cell-based, mouse; conditions: for cell motility (scratch-wound assay): 4T1 cells, 20 or 50 μM, 24 h
Procedure: as §2

[12] = system: 4T1 mouse mammary tumor cells; assay: MTT assay, 4T1 cells; type: cell-based
Procedure: as §3

NFATc1 = NFATc1 protein expression in primary mouse bone marrow cells; type: cell-based; conditions: 10 or 20 μM; 2 days
Rac1 GTPase [13] = assay: FRET-based Rac1 activity imaging, 4T1 cells; type: cell-based, mouse; conditions: 20 μM salubrinal
Procedure: as §1

4T1 cells [14] = assay: In vitro invasion assay (Boyden chamber, Matrigel), 4T1 cells; type: cell-based, mouse; conditions: for number of cells invaded through the filter coated with Matrigel: 4T1 cells, 24 h, regardless of serum, 10-50 μM salubrinal, 5-50 μM guanabenz
Procedure: as §5

SMILES | TRAP-positive multi-nucleated cells [5] | development of osteoclasts [5] | level of cleaved caspase 3 (cleaved caspase 3 [6]) | mRNA levels of NFATc1, TRAP, OSCAR, c-fos, MMP9, and cathepsin K [7] | cell adhesion (absorbance reading, number of adherent cells) (4T1 cells [8]) | cell motility (scratch-wound assay) (4T1 cells [11]) | NFATc1 protein expression (NFATc1) | number of cells invaded through the filter coated with Matrigel (4T1 cells [14]) | further results
O=C(/C=C/c1ccccc1)NC(NC(=S)Nc1cccc2cccnc12)C(Cl)(Cl)Cl (stereo not drawn) [salubrinal] | Reduction | Reduced development of osteoclasts | elevated | reduced | did not significantly change | reduced in a dose dependent manner | Suppression | significantly reduced | Rac1 activity (emission ratio of YFP/CFP) (Rac1 GTPase [1]): decreased; cell motility [2]: Reduction in cell motility; proliferation (relative cell growth) [3]: inhibitory effects; cleaved caspase 3 (cleaved caspase 3 [4]): Dose-dependent elevation; tumor volume [9]: 384.5±248.1 mm^3; tumor weight [9]: 0.32 ± 0.24 g; cell invasion [10]: Reduction in cell invasion; salubrinal-driven reduction in cell motility (4T1 cells [11]; 4T1 cells treated with eIF2α siRNA, 20 or 50 μM salubrinal): also suppressed; number of live 4T1 cells (MTT) ([12]; 10, 20, and 50 μM salubrinal): reduced in a dose dependent manner; salubrinal-driven reduction in Rac1 activity (Rac1 GTPase [13]; 4T1 cells transfected with eIF2α siRNA): significantly suppressed; Rac1 activity (emission ratio of YFP/CFP) (Rac1 GTPase [13]; 4T1 cells): decreased; salubrinal-driven reduction in cell invasion (4T1 cells [14]; 4T1 cells treated with eIF2α siRNA vs NC siRNA, 20 or 50 μM salubrinal): significantly suppressed; cell invasion (4T1 cells [14]; 4T1 control cells treated with NC siRNA, 20 or 50 μM salubrinal): reduced by salubrinal in a dose dependent manner
N=C(N)N/N=C/c1c(Cl)cccc1Cl [guanabenz] | Reduction | Reduced development of osteoclasts | elevated | reduced | did not significantly change | reduced in a dose dependent manner | Suppression | significantly reduced | number of live 4T1 cells (MTT) ([12]; 50 μM guanabenz): decreased
